Where “and” joins values, the source holds several entries; their conditions need not be identical. Equal values may be shown once. Inconclusive results and toxic doses are left out. The calls were made as follows: active = survival T/C of 150% or more; inactive = T/C below 125% in these data.
Tested on: P388 leukemia ip, CD2F1 mice, survival T/C
Assay: NCI In Vivo Anticancer Drug Screen. Data for tumor model P388 Leukemia (intraperitoneal) in CD2F1 (CDF1) mice
Conditions: endpoint: median survival time, higher = longer survival
Method in brief: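 Mice carrying the transplanted tumor received test compound or vehicle. Survival was recorded in each group, and the value is the treated-group measurement divided by that of the vehicle-treated control group.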

[1] = dose: 60.0 mg/kg/injection, schedule: Q01DX005 (ip), vehicle: saline with Tween-80
[2] = dose: 50.0 mg/kg/injection, schedule: Q01DX009 (ip), vehicle: saline
[3] = dose: 100.0 mg/kg/injection, schedule: Q01DX009 (ip), vehicle: saline
[4] = dose: 200.0 mg/kg/injection, schedule: Q01DX009 (ip), vehicle: saline
[5] = dose: 25.0 mg/kg/injection, schedule: Q01DX009 (ip), vehicle: saline with Tween-80
[6] = dose: 50.0 mg/kg/injection, schedule: Q01DX009 (ip), vehicle: saline with Tween-80
[7] = dose: 100.0 mg/kg/injection, schedule: Q01DX009 (ip), vehicle: saline with Tween-80
[8] = dose: 100.0 mg/kg/injection, schedule: Q04DX003 (ip), vehicle: Klucel (hydroxypropylcellulose) (HPC)
[9] = dose: 200.0 mg/kg/injection, schedule: Q04DX003 (ip), vehicle: Klucel (hydroxypropylcellulose) (HPC)
[10] = dose: 400.0 mg/kg/injection, schedule: Q04DX003 (ip), vehicle: Klucel (hydroxypropylcellulose) (HPC)
[11] = dose: 50.0 mg/kg/injection, schedule: Q01DX005 (ip), vehicle: Klucel (hydroxypropylcellulose) (HPC)
[12] = dose: 100.0 mg/kg/injection, schedule: Q01DX005 (ip), vehicle: Klucel (hydroxypropylcellulose) (HPC)
[13] = dose: 200.0 mg/kg/injection, schedule: Q01DX005 (ip), vehicle: Klucel (hydroxypropylcellulose) (HPC)
[14] = dose: 120.0 mg/kg/injection, schedule: Q01DX005 (ip), vehicle: saline with Tween-80
[15] = dose: 240.0 mg/kg/injection, schedule: Q01DX005 (ip), vehicle: saline with Tween-80

Measured: T/C

C/C(=N\NC(N)=Nc1ccc(Cl)cc1)c1ccc2c(c1)Cc1ccccc1-2
inactive: dose: 100.0 mg/kg/injection, schedule: Q04DX002 (ip), vehicle: saline with Tween-80 104 % of control | dose: 200.0 mg/kg/injection, schedule: Q04DX002 (ip), vehicle: saline with Tween-80 111 % of control | dose: 400.0 mg/kg/injection, schedule: Q04DX002 (ip), vehicle: saline with Tween-80 114 % of control

C[CH2][Sn]([CH2]C)([n]1c(C)nc2ccccc21)[n]1c(C)nc2ccccc21
inactive: dose: 1.56 mg/kg/injection, schedule: Q01DX005 (ip), vehicle: Klucel (hydroxypropylcellulose) (HPC) 110 % of control | dose: 3.12 mg/kg/injection, schedule: Q01DX005 (ip), vehicle: Klucel (hydroxypropylcellulose) (HPC) 122 % of control | dose: 6.25 mg/kg/injection, schedule: Q01DX005 (ip), vehicle: Klucel (hydroxypropylcellulose) (HPC) 122 % of control

O=C1Cc2ccccc2C(O)=C1c1cnccn1
inactive: dose: 15.0 mg/kg/injection, schedule: Q01DX005 (ip), vehicle: saline with Tween-80 93 % of control | dose: 30.0 mg/kg/injection, schedule: Q01DX005 (ip), vehicle: saline with Tween-80 99 % of control | [1] 101 % of control and 102 % of control

CCc1cccc2c(NCCCCCCNc3c4ccccc4nc4c(CC)cccc34)c3ccccc3nc12
inactive: dose: 0.63 mg/kg/injection, schedule: Q01DX009 (ip), vehicle: other 113 % of control | dose: 1.25 mg/kg/injection, schedule: Q01DX009 (ip), vehicle: other 109 % of control | dose: 2.5 mg/kg/injection, schedule: Q01DX009 (ip), vehicle: other 112 % of control | dose: 3.75 mg/kg/injection, schedule: Q01DX009 (ip), vehicle: other 105 % of control | dose: 5.0 mg/kg/injection, schedule: Q01DX009 (ip), vehicle: other 110 % of control | dose: 7.5 mg/kg/injection, schedule: Q01DX009 (ip), vehicle: other 114 % of control | dose: 15.0 mg/kg/injection, schedule: Q01DX009 (ip), vehicle: other 96 % of control

O=C(O)CSCCCCCSCC(=O)O
inactive: [2] 105 % of control | [3] 106 % of control | [4] 106 % of control

COc1ccc2c(c1)CCCN2
inactive: [5] 105 % of control and 108 % of control | [6] 103 % of control and 108 % of control | [7] 117 % of control

C=C(CN1CCOCC1)C(=O)c1ccccc1
inactive: dose: 1.89 mg/kg/injection, schedule: Q01DX005 (ip), vehicle: saline 105 % of control | dose: 3.75 mg/kg/injection, schedule: Q01DX005 (ip), vehicle: saline 112 % of control | dose: 7.5 mg/kg/injection, schedule: Q01DX005 (ip), vehicle: saline 100 % of control and 105 % of control

O=[N+]1C=CC=CC1=C1C=CC=CN1[O-]
inactive: dose: 50.0 mg/kg/injection, schedule: Q01DX005 (ip), vehicle: saline with Tween-80 104 % of control | dose: 100.0 mg/kg/injection, schedule: Q01DX005 (ip), vehicle: saline with Tween-80 110 % of control | dose: 200.0 mg/kg/injection, schedule: Q01DX005 (ip), vehicle: saline with Tween-80 103 % of control

CN(C)c1ccc(C(=O)C2CCCC(C)(C)C2)cc1 (configuration not stated)
inactive: [8] 98 % of control | [9] 99 % of control | [10] 91 % of control

O=C1OCCOCCOC(=O)C(=O)OCCOCCOC1=O
inactive: [8] 98 % of control | [9] 100 % of control | [10] 98 % of control

NC(=S)N=Nc1c(O)n(C2OC(CO)C(O)C(O)C2O)c2ccccc12 (configuration not stated)
inactive: dose: 32.0 mg/kg/injection, schedule: Q01DX002 (ip), vehicle: saline with Tween-80 109 % of control and 112 % of control | dose: 64.0 mg/kg/injection, schedule: Q01DX002 (ip), vehicle: saline with Tween-80 114 % of control and 116 % of control | dose: 128.0 mg/kg/injection, schedule: Q01DX002 (ip), vehicle: saline with Tween-80 98 % of control and 90 % of control

CN(C)CCC(=O)c1ccc(O)cc1
inactive: [2] 98 % of control | [3] 105 % of control | [4] 106 % of control

O=C1CCSC(=S)N1c1ccc(F)c(F)c1
inactive: dose: 50.0 mg/kg/injection, schedule: Q01DX009 (ip), vehicle: suspension in saline 107 % of control | dose: 100.0 mg/kg/injection, schedule: Q01DX009 (ip), vehicle: suspension in saline 92 % of control | dose: 200.0 mg/kg/injection, schedule: Q01DX009 (ip), vehicle: suspension in saline 92 % of control

CC(C)OC(=O)c1ccc(=O)oc1
inactive: [8] 105 % of control | [9] 99 % of control | [10] 110 % of control

Cc1cc[n+](CCc2c[nH]c3ccccc23)cc1C
inactive: dose: 12.5 mg/kg/injection, schedule: Q01DX005 (ip), vehicle: saline 100 % of control | dose: 25.0 mg/kg/injection, schedule: Q01DX005 (ip), vehicle: saline 97 % of control | dose: 50.0 mg/kg/injection, schedule: Q01DX005 (ip), vehicle: saline 105 % of control and 95 % of control

N#Cc1ccc(NN=NCCOCCCl)cc1
inactive: dose: 6.25 mg/kg/injection, schedule: Q01DX009 (ip), vehicle: distilled water + Tween-80 97 % of control | dose: 12.5 mg/kg/injection, schedule: Q01DX009 (ip), vehicle: distilled water + Tween-80 107 % of control | dose: 25.0 mg/kg/injection, schedule: Q01DX009 (ip), vehicle: distilled water + Tween-80 104 % of control | dose: 50.0 mg/kg/injection, schedule: Q01DX009 (ip), vehicle: distilled water + Tween-80 103 % of control | dose: 100.0 mg/kg/injection, schedule: Q01DX009 (ip), vehicle: distilled water + Tween-80 104 % of control

CC1CCC(C(C)C)C([c-]2[c-][c-][c-][c-]2)C1.CC1CCC(C(C)C)C([c-]2[c-][c-][c-][c-]2)C1.[Cl][Zr][Cl] (configuration not stated)
inactive: dose: 6.25 mg/kg/injection, schedule: Q01DX001 (ip), vehicle: Klucel (hydroxypropylcellulose) (HPC) 110 % of control | dose: 12.5 mg/kg/injection, schedule: Q01DX001 (ip), vehicle: Klucel (hydroxypropylcellulose) (HPC) 100 % of control | dose: 25.0 mg/kg/injection, schedule: Q01DX001 (ip), vehicle: Klucel (hydroxypropylcellulose) (HPC) 103 % of control

S=C(Nc1ccc(Cl)cc1)SSC(Cl)(Cl)Cl
inactive: dose: 12.5 mg/kg/injection, schedule: Q01DX009 (ip), vehicle: saline with Tween-80 91 % of control | [5] 100 % of control | dose: 50.0 mg/kg/injection, schedule: Q01DX009 (ip), vehicle: saline + alcohol 112 % of control | [6] 115 % of control

Clc1ccc(N2C(c3ccccc3)=N[C@@H](N3CCOCC3)[C@@H]2N2CCOCC2)cc1
inactive: [11] 100 % of control | [12] 100 % of control | [13] 105 % of control

COC(=O)C(=O)C(C(=O)C(c1ccccc1)c1ccccc1)c1nc2n(c1O)/C(=N/C(=O)Nc1ccc(Cl)cc1)N=N2 (configuration not stated)
inactive: [1] 100 % of control | [14] 98 % of control | [15] 99 % of control

CC(C)(/C=C/c1ccccc1)N=Cc1ccccc1
inactive: [1] 100 % of control | [14] 104 % of control | [15] 98 % of control

S=c1ssc2ccccc12
inactive: dose: 100.0 mg/kg/injection, schedule: Q04DX003 (ip), vehicle: saline with Tween-80 100 % of control | dose: 200.0 mg/kg/injection, schedule: Q04DX003 (ip), vehicle: saline with Tween-80 109 % of control | dose: 400.0 mg/kg/injection, schedule: Q04DX003 (ip), vehicle: saline with Tween-80 109 % of control

CC1(c2ccc(-c3ccccc3)cc2)NC(=O)NC1=O (configuration not stated)
inactive: [5] 91 % of control | [6] 86 % of control | [7] 91 % of control

Cn1c(O)c2c(c1O)C(=Nc1ccccc1)c1ccccc1C2=O
inactive: [11] 86 % of control | [12] 89 % of control | [13] 94 % of control

O=C(NC(=S)c1cccs1)NS(=O)(=O)c1ccc(Cl)cc1
inactive: dose: 25.0 mg/kg/injection, schedule: Q01DX001 (ip), vehicle: saline with Tween-80 98 % of control | dose: 50.0 mg/kg/injection, schedule: Q01DX001 (ip), vehicle: saline with Tween-80 98 % of control | dose: 100.0 mg/kg/injection, schedule: Q01DX001 (ip), vehicle: saline with Tween-80 98 % of control

Source: PubChem BioAssay AID330 (DTP/NCI, 2004)
